{
  "source": "patent US12023346B1",
  "about": "“Compositions and methods for treating epilepsy” (POVIVA CORP, priority 2023, dated 2024)",
  "origin": "cited, not measured here",
  "note": "Where two headings read alike, the source gives them in different places.",
  "data": [
    {"smiles": "C=C(C)[C@@H]1CCC(C)=C[C@H]1c1c(O)cc(CCCCC)cc1O", "note": "[Cannabidiol, 2-[(1R,6R)-6-Isopropenyl-3-methylcyclohex-2-en-1-yl]-5-pentylbenzene-1,3-diol]", "values": [
      {"measurement": "Plasma concentration on Day 22 at target CBD dose, 5 hours, Mean (SD)", "setting": "5 mg/kg/day (N = 10)", "result": "72.1 (49.0) ng/mL"},
      {"measurement": "Plasma concentration on Day 22 at target CBD dose, […], Mean (SD)", "setting": "5 mg/kg/day (N = 10)", "result": "130 (170) ng/mL"},
      {"measurement": "Plasma concentration on Day 1 at starting CBD dose, 5 hours, Mean (SD)", "setting": "5 mg/kg/day group (N = 10)", "result": "10.0 (5.74) ng/ml"},
      {"measurement": "Plasma concentration on Day 1 at starting CBD dose, Pre-dose, Mean (SD)", "setting": "5 mg/kg/day group (N = 10)", "result": 0, "unit": "ng/mL"},
      {"measurement": "Plasma concentration on Day 1 at starting CBD dose, […], Mean (SD)", "setting": "5 mg/kg/day group (N = 10)", "result": "37.6 (53.7) ng/ml"},
      {"measurement": "Plasma concentration on Day 22 at target CBD dose, 5 hours, Mean (SD)", "setting": "10 mg/kg/day (N = 8)", "result": "288 (345) ng/mL"},
      {"measurement": "Plasma concentration on Day 22 at target CBD dose, […], Mean (SD)", "setting": "10 mg/kg/day (N = 8)", "result": "242 (159) ng/mL"},
      {"measurement": "Plasma concentration on Day 1 at starting CBD dose, 5 hours, Mean (SD)", "setting": "10 mg/kg/day group (N = 8)", "result": "11.3 (11.7) ng/ml"},
      {"measurement": "Plasma concentration on Day 1 at starting CBD dose, Pre-dose, Mean (SD)", "setting": "10 mg/kg/day group (N = 8)", "result": 0, "unit": "ng/mL"},
      {"measurement": "Plasma concentration on Day 1 at starting CBD dose, […], Mean (SD)", "setting": "10 mg/kg/day group (N = 8)", "result": "34.4 (32.1) ng/ml"},
      {"measurement": "Plasma concentration on Day 22 at target CBD dose, 5 hours, Mean (SD)", "setting": "20 mg/kg/day (N = 9)", "result": "308 (321) ng/mL"},
      {"measurement": "Plasma concentration on Day 22 at target CBD dose, […], Mean (SD)", "setting": "20 mg/kg/day (N = 9)", "result": "380 (370) ng/mL"},
      {"measurement": "Plasma concentration on Day 1 at starting CBD dose, 5 hours, Mean (SD)", "setting": "20 mg/kg/day group (N = 9)", "result": "25.3 (42.4) ng/ml"},
      {"measurement": "Plasma concentration on Day 1 at starting CBD dose, Pre-dose, Mean (SD)", "setting": "20 mg/kg/day group (N = 9)", "result": 0, "unit": "ng/mL"},
      {"measurement": "Plasma concentration on Day 1 at starting CBD dose, […], Mean (SD)", "setting": "20 mg/kg/day group (N = 9)", "result": "29.3 (28.5) ng/ml"}
    ]}
  ]
}
